Laboratory results as given in paper PMC4413215, “New Prenylated Aeruginosin, Microphycin, Anabaenopeptin and Micropeptin Analogues from a Microcystis Bloom Material Collected in Kibbutz Kfar Blum, Israel” (Marine Drugs, 2015).
Like-named read-outs stand apart in the source and are kept apart here. *1 amine or outer side, *2 acyl side, *3 side chain or, on linkers, in order; H or OH if unused. Where a SMILES comes first, the peptide text is derived from it. Bridges are numbered along the chain shown (N, C = ends). [ ]: non-standard residue; d: D form. NMehTyr = CN[C@@H](CCc1ccc(O)cc1)C(=O)O; hPhe = N[C@@H](CCc1ccccc1)C(=O)O; CO = O=C([*:1])[*:2]

Assays:
chymotrypsin = chymotrypsin (Bos taurus, UniProt P00766); assay: Protease inhibition assay: chymotrypsin; assay type: biochemical; conditions: for inhibition of chymotrypsin, in words: discussion of Table 5
Description: (§1) Optical rotation values were obtained on a Jasco P-1010 polarimeter at the sodium D line (589 nm; concentrations are reported in g/100 mL. UV spectra were recorded on an Agilent 8453 spectrophotometer (Santa Clara, California, CA, USA). IR spectra were recorded on a Bruker Tensor 27 FT-IR instrument (Billerica, Massachusetts, MA, USA). NMR spectra were recorded on a Bruker DRX-500 spectrometer at 500.13 MHz for ^1H and 125.76 MHz for ^13C and a Bruker Avance 400 Spectrometer at 400.13 MHz for ^1H, 100.62 MHz for ^13C (Billerica, Massachusetts, MA, USA). DEPT, COSY-45, gTOCSY, gROESY, gHSQC, gHMQC and gHMBC spectra were recorded using standard Bruker pulse sequences. Mass spectra and MS/MS analyses were recorded on a Waters MaldiSynapt instrument (Milford, Massachusetts, MA, USA). HPLC separations were performed on a Jasco HPLC system (Halifax, Nova-Scotia, NS, Canada) (Model PU-2080-plus pump, Model LG-2080-04 Quaternary gradient unit and Model MD-2010-plus Multi-wavelength detector). An Elisa ELx808 reader (Bio-Tek Instruments, Inc (Winooski, VT, USA)) was used for protease inhibition assays.
(§2) The procedures used to determine the inhibitory activity of the new compounds on trypsin and chymotrypsin were described in a previous paper. The range of concentrations used in the assays was between 45.5 μM and 0.011 μM.

trypsin [1] = molecular target: T1, trypsin (Bos taurus, UniProt P00760); assay: Protease inhibition assay: trypsin; assay type: biochemical; conditions: discussion of Table 5
T1 sequence (P00760 24-246): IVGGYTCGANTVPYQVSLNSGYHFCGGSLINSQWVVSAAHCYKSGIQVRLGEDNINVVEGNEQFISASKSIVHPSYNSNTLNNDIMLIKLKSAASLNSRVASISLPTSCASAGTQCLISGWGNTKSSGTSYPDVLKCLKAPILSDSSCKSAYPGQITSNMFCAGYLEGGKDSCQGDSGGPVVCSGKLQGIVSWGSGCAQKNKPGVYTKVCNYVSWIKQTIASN
Description: as §1, §2

trypsin [2] = molecular target: T1, trypsin; set-up: method as in PMID 22280481; conditions: read-out: IC50 (against trypsin); cited from earlier work

Row | Structure (SMILES) | IC50 (chymotrypsin) [µM] | also measured
1 | CC(C)=CCN(CCCCNC(=O)C1CC2CCC(O)CC2N1C(=O)C(Cc1ccccc1)NC(=O)C(O)Cc1ccc(O)cc1)C(=N)N (centres unmarked) [Aeruginosin KB676 (1), Aeruginosin KB676] |  | IC50 (chymotrypsin; concentration range 45.5 μM to 0.011 μM, read-out: Chymotrypsin (IC50 in μM)): > 45.5 µM; inhibition of trypsin, in words (trypsin [1]): weak inhibitory activity
2 | CC[C@H](C)[C@@H]1NC(=O)[C@H](NC(=O)N[C@@H](CCCNC(=N)N)C(=O)O)CCCCNC(=O)[C@H]([C@@H](C)CC)NC(=O)[C@H](CCc2ccc(O)cc2)N(C)C(=O)[C@H](CCc2ccccc2)NC1=O [Anabaenopeptin KB906 (3), Anabaenopeptin KB906] ({Arg-CO}-[dK]I[hPhe][NMehTyr]I; lactam 1-C) | > 45.5 | 
3 | CCCC(=O)N[C@@H](CC(=O)O)C(=O)N[C@@H]1C(=O)N[C@@H](CCCNC(=N)N)C(=O)N[C@H]2CC[C@@H](O)N(C2=O)[C@@H](C(C)C)C(=O)N(C)[C@@H](Cc2ccccc2)C(=O)N[C@@H]([C@@H](C)CC)C(=O)O[C@@H]1C [Micropeptin KB928 (5), Micropeptin KB928] | > 45.5 | 
4 | CCCC(=O)N[C@@H](CC(=O)OC)C(=O)N[C@@H]1C(=O)N[C@@H](CCCNC(=N)N)C(=O)N[C@H]2CC[C@@H](OC)N(C2=O)[C@@H](C(C)C)C(=O)N(C)[C@@H](Cc2ccccc2)C(=O)N[C@@H]([C@@H](C)CC)C(=O)O[C@@H]1C [Micropeptin KB956 (6), Micropeptin KB956] | > 45.5 | 
5 | CCCCCC(=O)N[C@@H](CC(=O)OC)C(=O)N[C@@H]1C(=O)N[C@@H](CCCNC(=N)N)C(=O)N[C@H]2CC[C@@H](O)N(C2=O)[C@@H](C(C)C)C(=O)N(C)[C@@H](Cc2ccccc2)C(=O)N[C@@H]([C@@H](C)CC)C(=O)O[C@@H]1C [Micropeptin KB970A (7), Micropeptin KB970A] | > 45.5 | 
6 | CCCCCC(=O)N[C@@H](CC(=O)O)C(=O)N[C@@H]1C(=O)N[C@@H](CCCNC(=N)N)C(=O)N[C@H]2CC[C@@H](OC)N(C2=O)[C@@H](C(C)C)C(=O)N(C)[C@@H](Cc2ccccc2)C(=O)N[C@@H]([C@@H](C)CC)C(=O)O[C@@H]1C [Micropeptin KB970B (8), Micropeptin KB970B] | > 45.5 | 
7 | CCCCCC(=O)N[C@@H](CC(=O)OC)C(=O)N[C@@H]1C(=O)N[C@@H](CCCNC(=N)N)C(=O)N[C@H]2CC[C@@H](OC)N(C2=O)[C@@H](C(C)C)C(=O)N(C)[C@@H](Cc2ccccc2)C(=O)N[C@@H](C(C)C)C(=O)O[C@@H]1C [Micropeptin KB970C (10), Micropeptin KB970C] | > 45.5 | 
8 | CCCCCC(=O)N[C@@H](CC(=O)OC)C(=O)N[C@@H]1C(=O)N[C@@H](CCCNC(=N)N)C(=O)N[C@H]2CC[C@@H](OC)N(C2=O)[C@@H](C(C)C)C(=O)N(C)[C@@H](Cc2ccccc2)C(=O)N[C@@H]([C@@H](C)CC)C(=O)O[C@@H]1C [Micropeptin KB984 (9), Micropeptin KB984] | > 45.5 | 
9 | CC[C@H](C)[C@H]1C(=O)N(C)[C@@H](Cc2ccccc2)C(=O)N[C@@H](C(C)C)C(=O)O[C@H](C)[C@H](NC(=O)[C@H](CC(N)=O)NC(=O)[C@H](O)Cc2ccc(O)cc2)C(=O)N[C@@H](CC(C)C)C(=O)N[C@H]2CC[C@@H](OC)N1C2=O [Micropeptin KB992 (12), Micropeptin KB992] | 0.87 | inhibition of chymotrypsin, in words (chymotrypsin): inhibition of chymotrypsin
10 | CC[C@H](C)[C@@H]1NC(=O)[C@H](Cc2ccccc2)N(C)C(=O)[C@H](C(C)C)N2C(=O)[C@H](CC[C@H]2O)NC(=O)[C@H](C[C@H]2C=C[C@H](O)CC2)NC(=O)[C@@H](NC(=O)[C@H](CCC(N)=O)NC(=O)[C@H](O)Cc2ccc(O)cc2)[C@@H](C)OC1=O [Micropeptin KB1046 (13), Micropeptin KB1046] | 0.22 | inhibition of chymotrypsin, in words (chymotrypsin): inhibition of chymotrypsin
11 | CCCCCC(=O)N[C@@H](CC(=O)OC)C(=O)N[C@@H]1C(=O)N[C@@H](CCCNC(=N)N)C(=O)N[C@H]2CC[C@@H](OC)N(C2=O)[C@@H]([C@@H](C)CC)C(=O)N(C)[C@@H](Cc2ccc(O)c(Cl)c2)C(=O)N[C@@H]([C@H](C)CC)C(=O)O[C@@H]1C [Micropeptin KB1048 (11), Micropeptin KB1048] | 0.63 | inhibition of chymotrypsin, in words (chymotrypsin): inhibition of chymotrypsin
12 | CC(C)C[C@@H]1NC(=O)[C@@H]2CCCN2C(=O)[C@H](C)NC(=O)[C@H](CCC(N)=O)NC(=O)[C@H](C)NC(=O)[C@H](Cc2ccccc2)NC(=O)[C@H](Cc2ccccc2)NC(=O)[C@H](Cc2ccccc2)NC1=O [Microphycin KB921 (2), Microphycin KB921] (cyclo(APLFFFAQ)) | > 45.5 | 
13 | NC(N)=NCCCCNC(=O)[C@H]1C[C@H]2CC[C@@H](O)C[C@H]2N1C(=O)[C@@H](Cc1ccccc1)NC(=O)[C@H](O)Cc1ccc(O)cc1 [aeruginosin KT608B] |  | IC50 (trypsin [2]): 1.3 µM
